Test results as given in the supplement of paper PMC10307832.

Compound: CN1CCN(CC1)C2=CC(=C(C=C2)NC3=NC(=C(S3)C(=O)C4=C(C=CC=C4Cl)Cl)N)OC [XMD14-99] + CC(C)C[C@H](NC(=O)[C@H](Cc1ccccc1)NC(=O)c1cnccn1)B(O)O [Bortezomib] (partner 0.002 µM)
Assay: relative viability (nuclei count vs DMSO), 5 days (fraction); higher = more cells survive
Conditions: first compound 8 µM
How it was run: (§1)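 Relative viability equals treated-well nuclei counts divided by vehicle-well nuclei counts. Counts came from 4× images of lung cancer cell lines grown in 1536-well plates for 5 days after pin-tool dosing on the day after seeding. Dosing used one drug alone or a fixed anchor-drug dose plus five library-drug doses (not always all listed) in √10 steps, and values are medians of duplicate plates.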

Point of comparison: HCC-78, relative viability 0.47. Against it:
- HARA — higher, 0.867
- NCI-H441 — higher, 0.587
- LCLC-97TM1 — lower, 0.33
- NCI-H2023 — higher, 0.645
- A-427 — higher, 0.829
- NCI-H460 — higher, 0.784
- NCI-H727 — higher, 0.575
- NCI-H1734 — higher, 0.707
- NCI-H520 — lower, 0.279
- NCI-H2405 — higher, 0.874
- SW 1573 — higher, 0.936
- 201T — higher, 1.03
- NCI-H1915 — higher, 0.904
- HCC-827 — higher, 0.802
- LXF-289 — higher, 0.841
- NCI-H2347 — higher, 0.553
- NCI-H650 — higher, 0.649

Compound: CN1CCN(CC1)C2=CC(=C(C=C2)NC3=NC(=C(S3)C(=O)C4=C(C=CC=C4Cl)Cl)N)OC [XMD14-99] + Nc1ncn([C@H]2C[C@H](O)[C@@H](CO)O2)c(=O)n1 [Decitabine] (partner 2 µM)
Assay: as above
Conditions: first compound 0.08 µM
How it was run: as §1

Point of comparison: NCI-H2347, relative viability 0.584. Against it:
- PC-14 — lower, 0.26
- LCLC-103H — higher, 0.715
- NCI-H596 — higher, 1.03
- EMC-BAC-2 — higher, 0.973
- NCI-H2087 — lower, 0.282
- HCC-366 — lower, 0.32
- NCI-H1666 — higher, 0.81
- NCI-H647 — lower, 0.378
- NCI-H2126 — higher, 0.629
- H3255 — the same, 0.584
- COR-L23 — lower, 0.467
- COR-L 105 — higher, 0.718
- LOU-NH91 — higher, 0.868
- ChaGo-K-1 — lower, 0.52
- NCI-H3122 — lower, 0.405
- HOP-62 — lower, 0.23
- HCC-44 — higher, 1.01
- LU99A — higher, 0.852
- BEN — higher, 0.853
- HARA — lower, 0.565
- HCC-78 — higher, 0.709
- NCI-H441 — lower, 0.279
- LCLC-97TM1 — lower, 0.226
- NCI-H2023 — lower, 0.222
- A-427 — lower, 0.537
- NCI-H460 — lower, 0.461
- NCI-H727 — higher, 0.881
- NCI-H1734 — lower, 0.505
- NCI-H520 — lower, 0.465
- NCI-H2405 — higher, 0.704
- SW 1573 — lower, 0.451
- 201T — higher, 0.852
- NCI-H1915 — lower, 0.25
- HCC-827 — lower, 0.354
- LXF-289 — lower, 0.378
- NCI-H650 — lower, 0.272

Same assay, conditions: first compound 0.8 µM

Point of comparison: NCI-H1734, relative viability 0.494. Against it:
- PC-14 — lower, 0.238
- LCLC-103H — higher, 0.739
- NCI-H596 — higher, 0.943
- EMC-BAC-2 — higher, 0.898
- NCI-H2087 — lower, 0.264
- HCC-366 — lower, 0.363
- NCI-H1666 — higher, 0.628
- NCI-H647 — lower, 0.41
- NCI-H2126 — higher, 0.537
- H3255 — higher, 0.674
- COR-L23 — lower, 0.428
- COR-L 105 — higher, 0.651
- LOU-NH91 — higher, 0.853
- ChaGo-K-1 — higher, 0.531
- NCI-H3122 — lower, 0.359
- HOP-62 — lower, 0.226
- HCC-44 — higher, 0.902
- LU99A — higher, 0.918
- BEN — higher, 0.701
- HARA — higher, 0.505
- HCC-78 — higher, 0.646
- NCI-H441 — lower, 0.242
- LCLC-97TM1 — lower, 0.233
- NCI-H2023 — lower, 0.212
- A-427 — higher, 0.545
- NCI-H460 — lower, 0.486
- NCI-H727 — higher, 0.805
- NCI-H520 — lower, 0.468
- NCI-H2405 — higher, 0.749
- SW 1573 — higher, 0.545
- 201T — higher, 0.833
- NCI-H1915 — lower, 0.255
- HCC-827 — lower, 0.273
- LXF-289 — lower, 0.371
- NCI-H2347 — higher, 0.623
- NCI-H650 — lower, 0.318

Same assay, conditions: first compound 2.53 µM

Point of comparison: NCI-H647, relative viability 0.475. Against it:
- PC-14 — lower, 0.201
- LCLC-103H — higher, 0.721
- NCI-H596 — higher, 0.858
- EMC-BAC-2 — higher, 0.838
- NCI-H2087 — lower, 0.234
- HCC-366 — lower, 0.347
- NCI-H1666 — higher, 0.686
- NCI-H2126 — higher, 0.611
- H3255 — higher, 0.546
- COR-L23 — lower, 0.41
- COR-L 105 — higher, 0.606
- LOU-NH91 — higher, 0.807
- ChaGo-K-1 — higher, 0.5
- NCI-H3122 — lower, 0.333
- HOP-62 — lower, 0.237
- HCC-44 — higher, 0.898
- LU99A — higher, 0.784
- BEN — higher, 0.707
- HARA — higher, 0.537
- HCC-78 — higher, 0.822
- NCI-H441 — lower, 0.308
- LCLC-97TM1 — lower, 0.236
- NCI-H2023 — lower, 0.228
- A-427 — higher, 0.541
- NCI-H460 — higher, 0.495
- NCI-H727 — higher, 0.857
- NCI-H1734 — higher, 0.477
- NCI-H520 — higher, 0.483
- NCI-H2405 — higher, 0.628
- SW 1573 — the same, 0.475
- 201T — higher, 0.833
- NCI-H1915 — lower, 0.263
- HCC-827 — lower, 0.296
- LXF-289 — lower, 0.37
- NCI-H2347 — higher, 0.577
- NCI-H650 — lower, 0.292

Same assay, conditions: first compound 8 µM

Point of comparison: PC-14, relative viability 0.142. Against it:
- LCLC-103H — higher, 0.682
- NCI-H596 — higher, 0.964
- EMC-BAC-2 — higher, 0.802
- NCI-H2087 — higher, 0.192
- HCC-366 — higher, 0.291
- NCI-H1666 — higher, 0.567
- NCI-H647 — higher, 0.364
- NCI-H2126 — higher, 0.503
- H3255 — higher, 0.513
- COR-L23 — higher, 0.382
- COR-L 105 — higher, 0.604
- LOU-NH91 — higher, 0.776
- ChaGo-K-1 — higher, 0.481
- NCI-H3122 — higher, 0.283
- HOP-62 — higher, 0.273
- HCC-44 — higher, 0.911
- LU99A — higher, 0.669
- BEN — higher, 0.558
- HARA — higher, 0.403
- HCC-78 — higher, 0.47
- NCI-H441 — higher, 0.234
- LCLC-97TM1 — higher, 0.255
- NCI-H2023 — higher, 0.166
- A-427 — higher, 0.521
- NCI-H460 — higher, 0.385
- NCI-H727 — higher, 0.599
- NCI-H1734 — higher, 0.477
